Laboratory results from the supplement of paper PMC10307832.

What was measured:
Experiment in all cases: relative viability (nuclei count vs DMSO), 5 days (fraction); higher = more cells survive
Selisistat + Alpelisib = compound: C1CC(C2=C(C1)C3=C(N2)C=CC(=C3)Cl)C(=O)N [Selisistat] + Cc1nc(NC(=O)N2CCC[C@H]2C(N)=O)sc1-c1ccnc(C(C)(C)C(F)(F)F)c1 [Alpelisib] (partner 2 µM)
Summary of the method: (§1)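 The day after seeding in 1536-well plates, lung cancer cell lines were treated by pin tool with a single drug, or with a fixed anchor-drug dose together with five library-drug doses (not always all listed) in √10 steps. After 5 days, a combined fix-and-stain solution (final 0.05% Triton X-100, 1% formaldehyde, 1 ug/ml Hoechst) was added. Nuclei counted on 4× images gave relative viability as treated counts over vehicle counts, reported as the median of duplicate plates.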

Selisistat + Dasatinib = compound: C1CC(C2=C(C1)C3=C(N2)C=CC(=C3)Cl)C(=O)N [Selisistat] + Cc1nc(Nc2ncc(C(=O)Nc3c(C)cccc3Cl)s2)cc(N2CCN(CCO)CC2)n1 [Dasatinib] (partner 0.075 µM)
Summary of the method: as §1

Serdemetan + Foretinib = compound: c1ccc2c(CCNc3ccc(Nc4ccncc4)cc3)c[nH]c2c1 [Serdemetan] + COc1cc2c(Oc3ccc(NC(=O)C4(C(=O)Nc5ccc(F)cc5)CC4)cc3F)ccnc2cc1OCCCN1CCOCC1 [Foretinib] (partner 0.25 µM)
Summary of the method: as §1

Serdemetan + Crizotinib = compound: c1ccc2c(CCNc3ccc(Nc4ccncc4)cc3)c[nH]c2c1 [Serdemetan] + C[C@@H](Oc1cc(-c2cnn(C3CCNCC3)c2)cnc1N)c1c(Cl)ccc(F)c1Cl [Crizotinib] (partner 1 µM)
Summary of the method: as §1

| Cell Line | relative viability (Selisistat + Alpelisib; first compound 0.4 µM) | relative viability (Selisistat + Alpelisib; first compound 1.265 µM) | relative viability (Selisistat + Alpelisib; first compound 4 µM) | relative viability (Selisistat + Alpelisib; first compound 12.65 µM) | relative viability (Selisistat + Alpelisib; first compound 40 µM) | relative viability (Selisistat + Dasatinib; first compound 0.4 µM) | relative viability (Selisistat + Dasatinib; first compound 1.265 µM) | relative viability (Selisistat + Dasatinib; first compound 4 µM) | relative viability (Selisistat + Dasatinib; first compound 12.65 µM) | relative viability (Selisistat + Dasatinib; first compound 40 µM) | relative viability (Serdemetan + Foretinib; first compound 0.04 µM) | relative viability (Serdemetan + Foretinib; first compound 0.1265 µM) | relative viability (Serdemetan + Foretinib; first compound 0.4 µM) | relative viability (Serdemetan + Foretinib; first compound 1.265 µM) | relative viability (Serdemetan + Foretinib; first compound 4 µM) | relative viability (Serdemetan + Crizotinib; first compound 0.04 µM) | relative viability (Serdemetan + Crizotinib; first compound 0.1265 µM) | relative viability (Serdemetan + Crizotinib; first compound 0.4 µM) | relative viability (Serdemetan + Crizotinib; first compound 1.265 µM) | relative viability (Serdemetan + Crizotinib; first compound 4 µM) |
| --- | --- | --- | --- | --- | --- | --- | --- | --- | --- | --- | --- | --- | --- | --- | --- | --- | --- | --- | --- | --- |
| 201T | 1.04 | 0.986 | 0.981 | 1.03 | 1.02 | 0.588 | 0.551 | 0.581 | 0.528 | 0.534 | 1.14 | 1.13 | 1.02 | 0.636 | 0.73 | 1.05 | 1.03 | 0.948 | 0.927 | 0.879 |
| A549 | 0.976 | 0.841 | 0.652 | 0.843 | 0.901 |  |  |  |  |  | 0.964 | 0.969 | 1.02 | 0.627 | 0.177 | 0.807 | 0.757 | 0.764 | 0.578 | 0.306 |
| A-427 | 1.08 | 1.09 | 1.02 | 1.14 | 1.12 | 0.744 | 0.657 | 0.584 | 0.752 | 0.772 | 1.01 | 0.933 | 1.1 | 0.778 | 0.469 | 0.919 | 0.789 | 0.662 | 0.287 | 0.404 |
| ABC-1 | 0.977 | 0.972 | 0.872 | 1.15 | 0.921 | 0.553 | 0.469 | 0.589 | 0.588 | 0.509 | 0.855 | 1.08 | 0.766 | 0.604 | 0.418 | 0.926 | 1 | 0.817 | 0.69 | 0.475 |
| BEN | 0.953 | 0.986 | 0.818 | 0.9 | 0.884 | 0.308 | 0.269 | 0.233 | 0.353 | 0.295 | 0.631 | 0.682 | 0.794 |  | 0.609 | 0.826 | 0.864 | 0.944 | 0.759 | 0.64 |
| CAL-12T | 1.29 | 1.07 | 1.14 | 1.16 | 1.19 | 0.451 | 0.478 | 0.316 | 0.281 | 0.372 | 1.07 | 1.15 | 1.04 | 1.03 | 0.969 | 0.63 | 0.705 | 0.608 |  | 0.74 |
| COR-L23 | 0.921 | 0.872 | 0.793 | 0.767 | 0.766 | 0.523 | 0.583 | 0.579 | 0.529 | 0.494 | 0.989 | 1.01 | 1.07 | 0.847 | 0.843 | 0.679 | 0.578 | 0.771 | 0.589 | 0.564 |
| COR-L 105 | 0.888 | 0.929 | 1.03 | 0.964 | 0.846 | 0.339 | 0.357 |  | 0.297 | 0.32 | 0.979 | 0.866 | 0.9 | 0.839 | 0.772 | 0.729 | 0.716 | 0.709 | 0.874 | 0.838 |
| Calu-6 | 1.02 | 0.896 | 1.01 | 0.841 | 0.873 |  |  |  |  |  | 0.866 | 0.819 | 0.839 | 0.567 | 0.472 | 0.832 | 0.718 | 0.712 | 0.566 | 0.527 |
| ChaGo-K-1 |  |  |  |  |  | 0.562 | 0.551 | 0.563 | 0.539 | 0.592 | 0.9 | 0.703 | 0.566 | 0.335 | 0.296 |  | 1.11 | 1.11 | 0.714 | 0.43 |
| EBC-1 | 0.982 | 0.891 | 0.806 | 0.807 | 0.911 |  |  |  |  |  | 0.12 | 0.123 | 0.107 | 0.124 | 0.129 | 0.19 | 0.214 | 0.188 | 0.19 | 0.181 |
| EKVX | 0.949 | 0.855 | 0.723 | 0.853 | 0.878 | 0.575 | 0.509 |  | 0.409 | 0.392 | 1 | 0.82 | 0.424 |  | 0.858 | 0.899 | 0.894 | 0.913 | 0.897 | 0.98 |
| EMC-BAC-2 | 0.693 | 0.708 | 0.674 | 0.697 | 0.777 | 0.355 | 0.367 | 0.378 | 0.317 | 0.315 | 0.969 | 1.02 | 1.04 | 0.809 | 0.676 | 0.727 | 0.778 | 0.694 | 0.5 | 0.39 |
| EPLC-272H | 1.02 | 0.853 |  | 0.977 | 0.885 | 0.352 | 0.33 |  | 0.369 | 0.381 | 0.881 | 0.684 | 0.305 | 0.459 | 0.477 | 0.939 | 0.692 | 0.868 | 0.612 | 0.837 |
| H3255 | 0.724 | 0.662 | 0.725 | 0.62 | 0.786 | 0.385 | 0.369 | 0.309 | 0.331 | 0.428 | 1.02 | 0.845 | 0.833 | 0.727 | 0.708 | 0.723 | 0.836 | 0.811 | 0.746 | 0.853 |
| HARA | 0.881 | 0.868 | 0.793 | 0.846 | 0.842 | 0.25 | 0.299 | 0.202 | 0.166 | 0.264 | 0.84 | 0.903 | 0.871 | 0.585 | 0.452 | 0.856 | 0.971 | 0.966 |  | 0.601 |
| HCC-15 | 1.04 | 0.9 |  | 0.775 | 0.878 | 0.716 | 0.625 |  | 0.594 | 0.613 | 1 | 0.993 | 0.944 | 0.854 | 0.707 | 0.795 | 0.852 | 0.743 | 0.584 | 0.58 |
| HCC-44 | 0.86 | 0.874 | 0.853 | 0.846 | 0.9 |  |  |  |  |  |  |  |  |  |  | 0.766 | 0.828 | 0.71 | 0.54 | 0.599 |
